Laboratory results published in ChEMBL document CHEMBL4000243, “Anti-HSV-1, antioxidant and antifouling phenolic compounds from the deep-sea-derived fungus Aspergillus versicolor SCSIO 41502” (Bioorg Med Chem Lett, 2017).
Values after ≈ are worked out from the molar mass of the structure shown. Active and inactive are the calls of the source. No cut-off for these calls is given here.

Experiments:
[1] = Antioxidant activity assessed as DPPH radical scavenging activity at 100 ug/ml after 30 mins; type: functional
Human alphaherpesvirus 1 = assay: Antiviral activity against HSV-1 infected in African green monkey Vero cells by plaque reduction assay; type: functional; settings: for EC50: Human alphaherpesvirus 1, Vero
[2] = Cytotoxicity against African green monkey Vero cells assessed as reduction in cell viability by MTT assay; type: cell-based; settings: chlorocebus sabaeus
Bugula neritina [3] = assay: Antifouling activity against Bugula neritina larvae assessed as inhibition of larval settlement at 25 ug/ml after 1 hr by dissecting microscopy relative to control; type: functional
[4] = Antioxidant activity assessed as DPPH radical scavenging activity after 30 mins; type: functional
[5] = Antioxidant activity assessed as ABTS radical cation scavenging activity by measuring trolox equivalents by ABTS radical cation decolorization assay; type: functional
Bugula neritina [6] = assay: Selectivity index, ratio of LC50 for Bugula neritina larvae to EC50 for antifouling activity against Bugula neritina larvae
Bugula neritina [7] = assay: Antifouling activity against Bugula neritina assessed as inhibition of larval settlement after 1 hr by dissecting microscopy; type: functional

Cc1c(O)cc2cc(C[C@H](C)O)oc(=O)c2c1O
Activity [1]: < 50%

C[C@H](O)CC[C@H](CO)c1c(O)cc2c(c1O)C(=O)c1c(O)cc(O)cc1C2=O
EC50 (Human alphaherpesvirus 1): 6.25 µM
CC50 [2]: 50.7 µM
Activity [1]: < 50%

Cc1cc(O)c(Oc2cc(C)cc(O)c2O)c(O)c1
inhibition at 25 µg/mL (Bugula neritina [3]): 10 to 38%
IC50 [4]: 31.2 µM
Activity [1]: 81.3 to 92.8%

CCCCCC(c1c(C)cc(O)cc1O)c1c(O)cc2c(c1O)C(=O)c1c(O)cc(Oc3cc(C)cc(O)c3)cc1C2=O (stereo in doubt; (-)-6)
Activity [5]: 1.65 mmol/g

COC(C)CC(=O)Cc1cc(O)c(C)c(O)c1C=O (racemic)
Activity [1]: < 50%

O=C1O[C@H]([C@@H](O)CO)C(O)=C1O [ASCORBIC ACID]
IC50 [4]: 45.2 µM

CC(=O)CC[C@H](CO)c1c(O)cc2c(c1O)C(=O)c1c(O)cc(O)cc1C2=O
Activity (Human alphaherpesvirus 1): inactive
inhibition at 25 µg/mL (Bugula neritina [3]): 10 to 38%
Activity [1]: < 50%

COC(=O)c1c(C)cc(O)cc1O [METHYL ORSELLINATE]
inhibition at 25 µg/mL (Bugula neritina [3]): 10 to 38%
Activity [1]: < 50%

Cc1cc(O)cc(Oc2cc(C)cc(O)c2)c1 [DIORCINOL]
inhibition at 25 µg/mL (Bugula neritina [3]): 10 to 38%
Activity [1]: < 50%

CCCCCC(c1c(C)cc(O)cc1O)c1c(O)cc2c(c1O)C(=O)c1c(O)cc(Oc3cc(C)cc(O)c3)cc1C2=O (racemic) [listing 1 of 2 here]
inhibition at 25 µg/mL (Bugula neritina [3]): 10 to 38%

Cc1cc(O)c(O)c(Oc2cc(C)cc(O)c2Oc2cc(C)cc(O)c2O)c1
Activity (Human alphaherpesvirus 1): inactive
Selectivity Index (Bugula neritina [6]): >100
inhibition at 25 µg/mL (Bugula neritina [3]): 80%
EC50 (Bugula neritina [7]): 2.61 µg/mL (≈ 6.79 µM)
IC50 [4]: 21.2 µM
Activity [1]: 81.3 to 92.8%

Cc1cc(O)cc(O)c1 [ORCINOL]
inhibition at 25 µg/mL (Bugula neritina [3]): 10 to 38%
Activity [1]: < 50%

CCCCCC(c1c(C)cc(Oc2cc(C)cc(O)c2)cc1O)c1c(O)cc2c(c1O)C(=O)c1c(O)cc(O)cc1C2=O (racemic) [listing 1 of 2 here]
Activity (Human alphaherpesvirus 1): inactive
Activity [5]: 2.11 mmol/g
Activity [1]: < 50%

CC(=O)CCCC(c1c(C)cc(Oc2cc(C)cc(O)c2)cc1O)c1c(O)cc2c(c1O)C(=O)c1c(O)cc(O)cc1C2=O (racemic)
EC50 (Human alphaherpesvirus 1): 4.68 µM
Activity [5]: 2.03 mmol/g
CC50 [2]: 109 µM
Activity [1]: < 50%

CCCCCC(c1c(C)cc(Oc2cc(C)cc(O)c2)cc1O)c1c(O)cc2c(c1O)C(=O)c1c(O)cc(O)cc1C2=O (racemic) [listing 2 of 2 here]
inhibition at 25 µg/mL (Bugula neritina [3]): 10 to 38%

Cc1cc(O)cc(O)c1O
inhibition at 25 µg/mL (Bugula neritina [3]): 10 to 38%
IC50 [4]: 35.1 µM
Activity [1]: 81.3 to 92.8%

CCCCC[C@H](OC)c1c(O)cc2c(c1O)C(=O)c1c(O)cc(O)cc1C2=O
inhibition at 25 µg/mL (Bugula neritina [3]): 10 to 38%
Activity [1]: < 50%

C[C@]12CCC[C@@H](O1)c1c(cc3c(c1O)C(=O)c1c(O)cc(O)cc1C3=O)O2
inhibition at 25 µg/mL (Bugula neritina [3]): 10 to 38%
Activity [1]: < 50%

Cc1cc(O)cc(O)c1C(=O)O [ORSELLINIC ACID]
inhibition at 25 µg/mL (Bugula neritina [3]): 10 to 38%
Activity [1]: < 50%

COC(=O)c1c(O)ccc2oc3cc(C)cc(O)c3c(=O)c12
inhibition at 25 µg/mL (Bugula neritina [3]): 10 to 38%
Activity [1]: < 50%

CCCCCC(c1c(O)cc(C)cc1Oc1cc(C)cc(O)c1)c1c(O)cc2c(c1O)C(=O)c1c(O)cc(O)cc1C2=O (racemic)
Activity (Human alphaherpesvirus 1): inactive
Activity [5]: 2.18 mmol/g
Activity [1]: < 50%

O=C1c2cc(O)cc(O)c2C(=O)c2c1cc(O)c([C@@H](CO)CCO)c2O
inhibition at 25 µg/mL (Bugula neritina [3]): 10 to 38%
Activity [1]: < 50%

Nc1nc2c(ncn2COCCO)c(=O)[nH]1 [ACYCLOVIR]
EC50 (Human alphaherpesvirus 1): 3 µM
CC50 [2]: > 1000 µM

Cc1c(O)cc(CC(=O)C[C@H](C)O)c(C=O)c1O
Selectivity Index (Bugula neritina [6]): >100
inhibition at 25 µg/mL (Bugula neritina [3]): 72.4%
EC50 (Bugula neritina [7]): 3.4 µg/mL (≈ 13.5 µM)
Activity [1]: < 50%

Cc1cc(O)c(Oc2cc(C)cc(O)c2Oc2cc(C)cc(O)c2O)c(O)c1
Activity (Human alphaherpesvirus 1): inactive
Selectivity Index (Bugula neritina [6]): >100
inhibition at 25 µg/mL (Bugula neritina [3]): 70.6%
EC50 (Bugula neritina [7]): 5.48 µg/mL (≈ 14.3 µM)
IC50 [4]: 25.2 µM
Activity [1]: 81.3 to 92.8%

Cc1cc(O)c(Oc2cc(C)cc(Oc3cc(C)cc(O)c3O)c2O)c(O)c1
Activity (Human alphaherpesvirus 1): inactive
Selectivity Index (Bugula neritina [6]): >100
inhibition at 25 µg/mL (Bugula neritina [3]): 85.3%
EC50 (Bugula neritina [7]): 1.59 µg/mL (≈ 4.14 µM)
IC50 [4]: 18.9 µM
Activity [1]: 81.3 to 92.8%

Cc1cc(O)cc(Oc2cc(C)cc(O)c2O)c1 [CORDYOL C]
inhibition at 25 µg/mL (Bugula neritina [3]): 10 to 38%
IC50 [4]: 52.3 µM
Activity [1]: 81.3 to 92.8%

CCCCCC(c1c(C)cc(Oc2cc(C)cc(O)c2)cc1O)c1c(O)cc2c(c1O)C(=O)c1c(O)cc(O)cc1C2=O (stereo in doubt; (+)-7)
Activity [5]: 2.07 mmol/g

CC(=O)CC[C@H](COC(C)=O)c1c(O)cc2c(c1O)C(=O)c1c(O)cc(O)cc1C2=O
EC50 (Human alphaherpesvirus 1): 3.12 µM
inhibition at 25 µg/mL (Bugula neritina [3]): 10 to 38%
CC50 [2]: 65.1 µM
Activity [1]: < 50%

Cc1cc(OC(=O)c2c(C)cc(O)cc2O)cc(O)c1C(=O)O [LECANORIC ACID]
inhibition at 25 µg/mL (Bugula neritina [3]): 10 to 38%
Activity [1]: < 50%

CCCCCC(c1c(C)cc(O)cc1O)c1c(O)cc2c(c1O)C(=O)c1c(O)cc(Oc3cc(C)cc(O)c3)cc1C2=O (racemic) [listing 2 of 2 here]
Activity (Human alphaherpesvirus 1): inactive
Activity [5]: 2.27 mmol/g
Activity [1]: < 50%

CCCCCC(c1c(C)cc(Oc2cc(C)cc(O)c2)cc1O)c1c(O)cc2c(c1O)C(=O)c1c(O)cc(O)cc1C2=O (stereo in doubt; (-)-7)
Activity [5]: 1.53 to 2 mmol/g

COC(=O)c1c(C)cc(Oc2cc(O)cc(C)c2C(=O)O)cc1O
inhibition at 25 µg/mL (Bugula neritina [3]): 10 to 38%
Activity [1]: < 50%

Cc1cc(O)cc(OC(=O)c2c(C)cc(O)cc2O)c1 [LECANORIN]
inhibition at 25 µg/mL (Bugula neritina [3]): 10 to 38%
Activity [1]: < 50%

Cc1cc(O)cc(Oc2cc(C)c(C(=O)OCC(O)CO)c(O)c2)c1 (racemic)
Selectivity Index (Bugula neritina [6]): >100
inhibition at 25 µg/mL (Bugula neritina [3]): 91.2%
EC50 (Bugula neritina [7]): 1.28 µg/mL (≈ 3.67 µM)
Activity [1]: < 50%
